Laboratory results published in PubChem BioAssay (NCI).
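Assay format: 96-well plates, 48-hour exposure. GI50 marks 50% less growth. At the TGI there is no net growth.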

How the values were obtained:
Test in all cases: NCI anticancer screen, dose series, 48 h
[1] = tested on: OVCAR-3 ovarian
[2] = tested on: SK-MEL-2 melanoma
[3] = tested on: HOP-92 NSCLC
[4] = tested on: A498 renal
[5] = tested on: K-562 leukemia
[6] = tested on: UACC-62 melanoma
[7] = tested on: PC-3 prostate
[8] = tested on: MDA-MB-435
[9] = tested on: MOLT-4 leukemia
[10] = tested on: DU-145 prostate
[11] = tested on: SR leukemia
[12] = tested on: HOP-62 NSCLC
[13] = tested on: HCT-15 colon
[14] = tested on: OVCAR-5 ovarian
[15] = tested on: MALME-3M melanoma
[16] = tested on: NCI/ADR-RES ovarian
[17] = tested on: TK-10 renal
[18] = tested on: MCF7 breast
[19] = tested on: SNB-19 CNS
[20] = tested on: IGROV1 ovarian
[21] = tested on: 786-0 renal
[22] = tested on: NCI-H522 lung
[23] = tested on: HL-60(TB) leukemia
[24] = tested on: HCT-116 colon
[25] = tested on: EKVX NSCLC
[26] = tested on: SW-620 colon
[27] = tested on: CCRF-CEM leukemia
[28] = tested on: SF-539 CNS
[29] = tested on: SK-MEL-5 melanoma
[30] = tested on: OVCAR-8 ovarian
[31] = tested on: UO-31 renal
[32] = tested on: HCC-2998 colon
[33] = tested on: SN12C renal
[34] = tested on: RPMI-8226 leukemia
[35] = tested on: NCI-H23 lung
[36] = tested on: COLO 205 colon
[37] = tested on: UACC-257 melanoma
[38] = tested on: CAKI-1 renal
[39] = tested on: T-47D breast
[40] = tested on: KM12 colon
[41] = tested on: NCI-H460 lung
[42] = tested on: SF-268 CNS
[43] = tested on: NCI-H226 lung
[44] = tested on: LOX IMVI melanoma
[45] = tested on: SK-MEL-28 melanoma
[46] = tested on: SK-OV-3 ovarian
[47] = tested on: OVCAR-4 ovarian
[48] = tested on: BT-549 breast
[49] = tested on: HS 578T breast
[50] = tested on: HT29 colon
[51] = tested on: RXF 393 renal
[52] = tested on: U251 CNS
[53] = tested on: MDA-MB-231 breast
[54] = tested on: SF-295 CNS
[55] = tested on: A549 NSCLC
[56] = tested on: SNB-75 CNS

COc1cc(OC)c(F)c(COc2cnc(Nc3cnn(CCO)c3)nc2)c1F showed a GI50 [1] of 429 nM, a TGI [1] greater than 100000 nM and a GI50 [2] of 404 nM. It also gave a TGI [2] of 2710 nM, a GI50 [3] of 767 nM and a TGI [3] of 5400 nM. For the same molecule, the GI50 [4] was less than 10.7 nM, the TGI [4] was 138 nM and the GI50 [5] was 343 nM. For the same molecule, the TGI [5] was greater than 100000 nM, the GI50 [6] was 518 nM and the TGI [6] was greater than 62000 nM. It also gave a GI50 [7] of 1680 nM, a TGI [7] greater than 100000 nM and a GI50 [8] of 200 nM. The TGI [8] was 590 nM, the GI50 [9] was 668 nM and the TGI [9] was greater than 100000 nM. The GI50 [10] was 2150 nM, the TGI [10] was greater than 100000 nM and the GI50 [11] was 274 nM. For the same molecule, the GI50 [12] was 423 nM, the TGI [12] was 4580 nM and the GI50 [13] was 482 nM. It also gave a TGI [13] greater than 100000 nM, a GI50 [14] of 2080 nM and a TGI [14] greater than 100000 nM. The GI50 [15] was 923 nM, the TGI [15] was 7660 nM and the GI50 [16] was 726 nM. It also gave a TGI [16] greater than 100000 nM, a GI50 [17] of 1010 nM and a TGI [17] greater than 27900 nM. For the same molecule, the GI50 [18] was 417 nM, the TGI [18] was greater than 100000 nM and the GI50 [19] was 796 nM. It also gave a TGI [19] greater than 100000 nM, a GI50 [20] of 595 nM and a TGI [20] greater than 100000 nM. For the same molecule, the GI50 [21] was 1750 nM, the TGI [21] was greater than 100000 nM and the GI50 [22] was 341 nM. For the same molecule, the TGI [22] was 1650 nM, the GI50 [23] was 245 nM and the TGI [23] was 702 nM. It also gave a GI50 [24] of 386 nM, a TGI [24] greater than 100000 nM and a GI50 [25] of 1940 nM. For the same molecule, the TGI [25] was greater than 100000 nM, the GI50 [26] was 412 nM and the TGI [26] was greater than 100000 nM. The GI50 [27] was 669 nM, the TGI [27] was greater than 100000 nM and the GI50 [28] was 275 nM. The TGI [28] was 2170 nM, the GI50 [29] was 501 nM and the TGI [29] was 2710 nM. It also gave a GI50 [30] of 2240 nM, a TGI [30] greater than 100000 nM and a GI50 [31] of 556 nM. The TGI [31] was greater than 20500 nM, the GI50 [32] was 2510 nM and the TGI [32] was greater than 100000 nM. For the same molecule, the GI50 [33] was 1590 nM, the TGI [33] was greater than 100000 nM and the GI50 [34] was 1030 nM. It also gave a TGI [34] greater than 100000 nM, a GI50 [35] of 1860 nM and a TGI [35] greater than 100000 nM. The GI50 [36] was 607 nM, the TGI [36] was 3140 nM and the GI50 [37] was 1450 nM. The TGI [37] was greater than 100000 nM, the GI50 [38] was 394 nM and the TGI [38] was 2870 nM. The GI50 [39] was 1680 nM, the TGI [39] was greater than 100000 nM and the GI50 [40] was 431 nM. It also gave a TGI [40] of 7230 nM, a GI50 [41] of 444 nM and a TGI [41] greater than 100000 nM. It also gave a GI50 [42] of 1030 nM, a TGI [42] greater than 64900 nM and a GI50 [43] of 343 nM. It also gave a TGI [43] greater than 23900 nM, a GI50 [44] of 526 nM and a TGI [44] greater than 22600 nM. For the same molecule, the GI50 [45] was 1850 nM, the TGI [45] was greater than 100000 nM and the GI50 [46] was 845 nM. It also gave a TGI [46] of 5670 nM, a GI50 [47] of 617 nM and a TGI [47] greater than 100000 nM. It also gave a GI50 [48] of 177 nM, a TGI [48] greater than 100000 nM and a GI50 [49] of 350 nM. For the same molecule, the TGI [49] was 3430 nM, the GI50 [50] was 360 nM and the TGI [50] was 4310 nM. For the same molecule, the GI50 [51] was 188 nM, the TGI [51] was 2440 nM and the GI50 [52] was 528 nM. The TGI [52] was greater than 30800 nM, the GI50 [53] was 1380 nM and the TGI [53] was 7640 nM. It also gave a GI50 [54] of 649 nM, a TGI [54] greater than 29800 nM and a GI50 [55] of 1370 nM. The TGI [55] was greater than 100000 nM, the GI50 [56] was 203 nM and the TGI [56] was 2320 nM.
